According to US20080292673A1, “Bioactive agrichemical compositions and use therreof” (priority 2007, published 2008):
Where two headings read alike, the source gives them in different places.

Legend:
[1] = test system: Saccharomycetes Cerevisiae (Fleishmann's Bakers yeast); assay: Saccharomycetes Cerevisiae yeast growth suppression, turbidity of broth suspension; assay type: cell-based; settings: for T18 − T0 (change in turbidity) / T48 − T0 (change in turbidity) / T72 − T0 (change in turbidity) / T96 − T0 (change in turbidity) / T18 (turbidity of yeast suspension) / T48 (turbidity of yeast suspension) / T72 (turbidity of yeast suspension) / T96 (turbidity of yeast suspension) / T0 (turbidity of yeast suspension): surfactant ~0.05 wt %; for T0 (turbidity of yeast suspension): time 0; for Turbidity (NTU) OD (To) / Turbidity (NTU) OD (T1 hr) / Turbidity (NTU) OD (T18) / Turbidity (NTU) OD (T24) / Turbidity (NTU) OD (T48): Table 3; for Turbidity (NTU) OD (To): 1 ml solutions added; for Turbidity (NTU) OD (T1 hr): 1 hour; for Turbidity (NTU) OD (T48): 48 hours; for Change in Turbidity from T0 (delta NTU) OD (T1 hr) / Change in Turbidity from T0 (delta NTU) OD (T18) / Change in Turbidity from T0 (delta NTU) OD (T24) / Change in Turbidity from T0 (delta NTU) OD (T48): Table 3A; for Change in Turbidity from T0 (delta NTU) OD (T48): 48 hours minus time zero
Procedure: Saccharomycetes Cerevisiae was selected as a test organism as it is generally accepted in the industry as an indicator or surrogate organism for a wide variety of fungi. In each of these experiments, the same general procedure was followed unless otherwise indicated.
Experimental Detail: A growth medium was prepared by adding 10 grams of nutrient medium (Difco Sabouraud dextrose broth from BD of Franklin Lakes, N.J., USA) to 300 ml of distilled water. Fleishmann's Bakers yeast was then added to the growth medium while mixing using a magnetic stirrer until a uniform dispersion was obtained having an initial turbidity of between about 50 and 100 NTU as measured using a HF Instruments DRT 100B Turbidity Meter. Once the appropriate dispersion was obtained, 20 ml aliquots were then dispensed, with continued mixing, into 40 ml borosilicate glass vials with Teflon lined caps (VWR International Cat. No. 15900-004). The system/component to be evaluated was then added to the vial and intimately shaken to ensure a good, substantially homogeneous mixture. The turbidity of each mixture was then determined and the vial transferred to an incubator at 30° C. Each vial was periodically removed from the incubator and the mixture in the vials assessed for turbidity: the specific timing for such evaluation was as set forth in the discussion of the experiments and the accompanying tables.
In each experiment, unless otherwise specified, a 2 ml aqueous solution containing the specified bioactive system or component thereof was added to the 20 ml yeast suspension and mixed thoroughly. Typically the surfactants were added separately in a concentrated solution in water; however, the volume added was negligible: a fraction of an ml. For convenience in understanding efficacy levels, the amounts or concentrations of the various components presented in each of the following tables and experiments are of the diluted material in the test vial: not of the concentrate added to the test vial. Furthermore, the concentrations presented are on the basis of a 20 ml total volume, not the actual 22+ ml volume. Multiplying each of the listed concentrations by 0.9 (or 0.95 with those compositions using 1 ml aqueous solutions) will provide a more accurate assessment of the concentrations of the various components evaluated, i.e., a 5 ppm silver concentration is actually closer to 4.5 ppm. Finally, for those vials to which no bioactive system or component thereof was added (the controls) or which only contained the surfactants, 2 ml of additional growth medium was added to ensure relative equivalent dilutions of the yeast.
In the tables below, the results are presented as the actual turbidity readings (NTU) with a sub-table presenting the change or delta in NTU values. Given the nature of the system, changes in turbidity are reflective of the relative performance/bioefficacy of the bioactive systems and their components.

[2] = test system: E. amylovora 153N; assay: Fire blight on crabapples (Example 287); assay type: in vivo, Snow Drift crabapple trees; settings: for shoot blight incidence, in words: evaluated on day 63; for canker, in words: length of cankers evaluated on day 63
Procedure: A study of the bioefficacy of the various agrichemical compositions, including bioactive acid solutions and blends thereof with an antibiotic agrichemical, were evaluated to assess their bioefficacy against fire blight on crabapples. The study was conducted on 5 year old Snow Drift crabapple trees, with each of the compositions being applied to ten trees in two-subplots of five trees, four different times: at 100% bloom-day 1, a second application was made on day 4, a third on day 11 and a final treatment on day 19. The trees were inoculated with E. amylovora […] at a concentration of 4×10^6 cells per milliliter on day 1, following drying of the treatment, with the inoculation being repeated on day 13. Evaluation for fire blight was completed on 100 blossoms for each of the subplots on day 12, day 19 and day 27. Additionally, the incidence of shoot infection and the length of […] evaluated on day 63. The test compositions were prepared by forming solutions of the bioactive agents. Two different dilutions of the MI2 bioactive were evaluated; the first employing 94.46 ml/gallon (25 ml/l) of water (5 ppm of each metal) and the second 188.9 ml/gallon (50 ml/l) of water (10 ppm of each metal). […] Finally, copper hydroxide was diluted at a rate of 1 lb/gallon (119.8 g/l). Each of the compositions and blends were spray applied at a rate of 50 gallons (189.3 l) pre acre. The results are presented as the mean of the counts.

[3] = Metal ppm 2.5, about 0.2% citric acid
[4] = Metal ppm 2.5 each of copper, silver, zinc, about 0.2% citric acid
[5] = Metal ppm 5, approximately 0.4% citric acid
[6] = Metal ppm 5 each of copper, silver, zinc, approximately 0.4% citric acid
[7] = 1 hour minus time zero, sulfate
[8] = 18 hours minus time zero, sulfate
[9] = 24 hours minus time zero, sulfate

CCCCCCCCCCCCOS(=O)(=O)[O-].[Na+]
T18 − T0 (change in turbidity) ([1]; neat, Metal ppm 0): 447
T48 − T0 (change in turbidity) ([1]; neat, Metal ppm 0): 610
T72 − T0 (change in turbidity) ([1]; neat, Metal ppm 0): 594
T96 − T0 (change in turbidity) ([1]; neat, Metal ppm 0): 591
T18 (turbidity of yeast suspension) ([1]; neat, Metal ppm 0): 495
T48 (turbidity of yeast suspension) ([1]; neat, Metal ppm 0): 658
T72 (turbidity of yeast suspension) ([1]; neat, Metal ppm 0): 642
T96 (turbidity of yeast suspension) ([1]; neat, Metal ppm 0): 639
T0 (turbidity of yeast suspension) ([1]; neat, Metal ppm 0): 48
T18 − T0 (change in turbidity) [1, 3]: 2
T48 − T0 (change in turbidity) [1, 3]: 0
T72 − T0 (change in turbidity) [1, 3]: 0
T96 − T0 (change in turbidity) [1, 3]: −1
T18 (turbidity of yeast suspension) [1, 4]: 90
T48 (turbidity of yeast suspension) [1, 4]: 88
T72 (turbidity of yeast suspension) [1, 4]: 88
T96 (turbidity of yeast suspension) [1, 4]: 87
T0 (turbidity of yeast suspension) [1, 4]: 88
T18 − T0 (change in turbidity) [1, 5]: 13
T48 − T0 (change in turbidity) [1, 5]: 2
T72 − T0 (change in turbidity) [1, 5]: 7
T96 − T0 (change in turbidity) [1, 5]: 1
T18 (turbidity of yeast suspension) [1, 6]: 244
T48 (turbidity of yeast suspension) [1, 6]: 233
T72 (turbidity of yeast suspension) [1, 6]: 238
T96 (turbidity of yeast suspension) [1, 6]: 232
T0 (turbidity of yeast suspension) [1, 6]: 231

O=C([O-])CC(O)(CC(=O)[O-])C(=O)[O-].[Ag+].[Ag+].[Ag+] [Example 1, silver citrate]
Turbidity (NTU) Time 1 Hr ([1]; Table 1, 1 hour at 30° C.): 59.6 NTU
Turbidity (NTU) T 18 hours ([1]; Table 1, 18 hours): 890 NTU
Turbidity (NTU) T 24 hours ([1]; Table 1, 24 hours): 932 NTU
Turbidity (NTU) T 96 Hours ([1]; Table 1, 96 hours): 995 NTU
Turbidity (NTU) Time zero ([1]; Table 1, time zero): 44.5 NTU
Change in Turbidity from T0 (delta NTU) Time 1 Hr ([1]; Table 1A, 1 hour minus time zero): 15.1 delta NTU
Change in Turbidity from T0 (delta NTU) T 18 hours ([1]; Table 1A, 18 hours minus time zero): 845.5 delta NTU
Change in Turbidity from T0 (delta NTU) T 24 hours ([1]; Table 1A, 24 hours minus time zero): 887.5 delta NTU
Change in Turbidity from T0 (delta NTU) T 96 Hours ([1]; Table 1A, 96 hours minus time zero): 950.5 delta NTU

O=C([O-])CC(O)(CC(=O)[O-])C(=O)[O-].O=C([O-])CC(O)(CC(=O)[O-])C(=O)[O-].[Zn+2].[Zn+2].[Zn+2] [Example 7, zinc citrate]
Change in Turbidity from T0 (delta NTU) T 96 Hours [1]: 1007.2 delta NTU
Change in Turbidity from T0 (delta NTU) T 18 hours [1]: 948.2 delta NTU
Change in Turbidity from T0 (delta NTU) T 24 hours [1]: 949.2 delta NTU
Change in Turbidity from T0 (delta NTU) Time 1 Hr [1]: 20.7 delta NTU
Turbidity (NTU) T 96 Hours [1]: 1051 NTU
Turbidity (NTU) T 18 hours [1]: 992 NTU
Turbidity (NTU) T 24 hours [1]: 993 NTU
Turbidity (NTU) Time 1 Hr [1]: 64.5 NTU
Turbidity (NTU) Time zero [1]: 43.8 NTU

CCCCCCCCCCCCOS(=O)(=O)[O-].[Na+] [Example 45]
Turbidity (NTU) OD (To) ([1]; time zero, sulfate): 43 NTU
Turbidity (NTU) OD (T1 hr) ([1]; sulfate): 47 NTU
Turbidity (NTU) OD (T18) ([1]; 18 hours, sulfate): 675 NTU
Turbidity (NTU) OD (T24) ([1]; 24 hours, sulfate): 728 NTU
Turbidity (NTU) OD (T48) ([1]; sulfate): 758 NTU
Change in Turbidity from T0 (delta NTU) OD (T1 hr) [1, 7]: 4 delta NTU
Change in Turbidity from T0 (delta NTU) OD (T18) [1, 8]: 632 delta NTU
Change in Turbidity from T0 (delta NTU) OD (T24) [1, 9]: 685 delta NTU
Change in Turbidity from T0 (delta NTU) OD (T48) ([1]; sulfate): 715 delta NTU

CCCCCCCCCCCCOS(=O)(=O)[O-].[Na+] [Example 46]
Turbidity (NTU) OD (To) ([1]; time zero, sulfate): 37 NTU
Turbidity (NTU) OD (T1 hr) ([1]; sulfate): 42 NTU
Turbidity (NTU) OD (T18) ([1]; 18 hours, sulfate): 495 NTU
Turbidity (NTU) OD (T24) ([1]; 24 hours, sulfate): 610 NTU
Turbidity (NTU) OD (T48) ([1]; sulfate): 605 NTU
Change in Turbidity from T0 (delta NTU) OD (T1 hr) [1, 7]: 5 delta NTU
Change in Turbidity from T0 (delta NTU) OD (T18) [1, 8]: 458 delta NTU
Change in Turbidity from T0 (delta NTU) OD (T24) [1, 9]: 573 delta NTU
Change in Turbidity from T0 (delta NTU) OD (T48) ([1]; sulfate): 568 delta NTU

O=C(O)CC(O)(CC(=O)O)C(=O)O [Example 49, citric acid]
Turbidity (NTU) OD (To) ([1]; time zero): 42 NTU
Turbidity (NTU) OD (T1 hr) [1]: 46 NTU
Turbidity (NTU) OD (T18) ([1]; 18 hours): 835 NTU
Turbidity (NTU) OD (T24) ([1]; 24 hours): 920 NTU
Turbidity (NTU) OD (T48) [1]: 878 NTU
Change in Turbidity from T0 (delta NTU) OD (T1 hr) ([1]; 1 hour minus time zero): 4 delta NTU
Change in Turbidity from T0 (delta NTU) OD (T18) ([1]; 18 hours minus time zero): 793 delta NTU
Change in Turbidity from T0 (delta NTU) OD (T24) ([1]; 24 hours minus time zero): 878 delta NTU
Change in Turbidity from T0 (delta NTU) OD (T48) [1]: 836 delta NTU

O=C(O)CC(O)(CC(=O)O)C(=O)O [Example 50, citric acid]
Turbidity (NTU) OD (To) ([1]; time zero): 38 NTU
Turbidity (NTU) OD (T1 hr) [1]: 44 NTU
Turbidity (NTU) OD (T18) ([1]; 18 hours): 780 NTU
Turbidity (NTU) OD (T24) ([1]; 24 hours): 864 NTU
Turbidity (NTU) OD (T48) [1]: 852 NTU
Change in Turbidity from T0 (delta NTU) OD (T1 hr) ([1]; 1 hour minus time zero): 6 delta NTU
Change in Turbidity from T0 (delta NTU) OD (T18) ([1]; 18 hours minus time zero): 742 delta NTU
Change in Turbidity from T0 (delta NTU) OD (T24) ([1]; 24 hours minus time zero): 826 delta NTU
Change in Turbidity from T0 (delta NTU) OD (T48) [1]: 814 delta NTU

[Cu+2].[OH-].[OH-] [copper hydroxide]
shoot blight incidence, in words [2]: greatly reduced
canker, in words [2]: appeared to prevent canker

[H]/N=C(/N)N[C@H]1[C@H](O)[C@@H](O)[C@H](O[C@@H]2O[C@@H](C)[C@](O)(C=O)[C@H]2O[C@@H]2O[C@@H](CO)[C@H](O)[C@@H](O)[C@@H]2NC)[C@@H](N/C(N)=N\[H])[C@@H]1O [streptomycin]
shoot blight incidence, in words [2]: greatly reduced
canker, in words [2]: appeared to prevent canker

copper citrate [Example 13]
Change in Turbidity from T0 (delta NTU) T 96 Hours [1]: 1054.4 delta NTU
Change in Turbidity from T0 (delta NTU) T 18 hours [1]: 894.4 delta NTU
Change in Turbidity from T0 (delta NTU) T 24 hours [1]: 975.4 delta NTU
Change in Turbidity from T0 (delta NTU) Time 1 Hr [1]: 22.4 delta NTU
Turbidity (NTU) T 96 Hours [1]: 1100 NTU
Turbidity (NTU) T 18 hours [1]: 940 NTU
Turbidity (NTU) T 24 hours [1]: 1021 NTU
Turbidity (NTU) Time 1 Hr [1]: 68 NTU
Turbidity (NTU) Time zero [1]: 45.6 NTU
